Converted amounts (≈) assume the structure as drawn. Bounds are passed on as bounds.

The conditions of this data set: buffer; pH 7.4; 200.0 µM.
For the compound `CCc1ccc(C(=O)COC(=O)CNC(=O)C2CCCCC2)cc1`, the kinetic solubility (as a rule, the concentration staying in solution when a stock, usually in DMSO, is diluted into the medium) turned out to be 18.1 µg/mL (≈ 54.6 µM).

In the case of `O=C(N/N=C/c1cccnc1)c1ccco1`, the kinetic solubility was > 32.3 µg/mL. Then `O=C(Nc1cc(S(=O)(=O)N2CCCC2)ccc1Cl)c1ccncc1`, with > 54.9 µg/mL. The result for `COc1ccc(NC(=S)NC(=O)/C=C/c2ccccc2)cc1` reads < 0.3 µg/mL; that for `O=C(Nc1ccc(S(=O)(=O)N2CCCCC2)cc1)C1CC1`, > 46.3 µg/mL; that for `COc1ccc(OCCSc2nc(C)nc3ccccc23)cc1`, 0.6 µg/mL (≈ 1.84 µM). The result for `O=C(COC(=O)C1CCCO1)Nc1nc(-c2ccc(F)cc2)cs1` (centres undefined) reads > 52.6 µg/mL; that for `COc1cccc(NC(=O)CSc2nc(C3CC3)nc3ccccc23)c1`, < 0.3 µg/mL; that for `O=C1NC(c2ccc(Cl)c([N+](=O)[O-])c2)Nc2ccccc21` (centres undefined), 7.7 µg/mL (≈ 25.4 µM). As to `O=C(Cc1ccc(Br)cc1)N1CCOCC1`, the solubility (kinetic) stood at 38.8 µg/mL (≈ 137 µM).

As for `CCOc1cc(/C=C\c2nc(O)c([N+](=O)[O-])c(=O)[nH]2)ccc1OC(C)C`, the kinetic solubility was > 54.2 µg/mL.

`Cc1onc(-c2ccccc2)c1NC(=O)N(Cc1ccccc1)C(C)C` registered a kinetic solubility of 22.7 µg/mL (≈ 65 µM). Turning to `COCC(=O)Nc1ccccc1-c1ccccc1`, the solubility (kinetic) is > 36.2 µg/mL. As for `CC(CC(=O)Nc1cccnc1)c1ccccc1` (centres undefined), the kinetic solubility was > 36 µg/mL. The compound `O=c1ncn(-c2cccc(Cl)c2)c2ccccc12` gave a solubility (kinetic) of 38 µg/mL (≈ 148 µM).

Turning to `NS(=O)(=O)c1ccc(NC(=O)c2ccc3c(c2)OCO3)cc1`, the kinetic solubility is < 0.3 µg/mL. The result for `O=c1[nH]c(/C=C/c2ccccc2Cl)c([N+](=O)[O-])c(=O)[nH]1` reads > 44.1 µg/mL; that for `Cc1cnc(C(=O)Oc2ccc(-c3ccccc3)cc2)cn1`, 2.8 µg/mL (≈ 9.64 µM). The compound `CCOC(=O)c1sc(-c2cccs2)nc1C` yielded a solubility (kinetic) of 2.6 µg/mL (≈ 10.3 µM). The result for `Cc1cc(C(=O)NC(C)C2CCCO2)c(C)o1` (centres undefined) reads > 35.6 µg/mL; that for `S=C(NC1CCCCC1)NC1CC2C=CC1C2` (centres undefined), 19.5 µg/mL (≈ 77.9 µM); that for `COc1cc(/C=C/C(=O)OCC(=O)NCC2CCCCC2)ccc1O`, > 52.1 µg/mL. The result for `CC(=O)Nc1ccc(C(=O)NCCN2CCOCC2)cc1` reads 36 µg/mL (≈ 124 µM).

For the compound `COc1ccc(CC(=O)NC2CCCCCC2)c(OC)c1`, the solubility (kinetic) was 37.6 µg/mL (≈ 129 µM). Compound `COc1ccc(C2C(C(C)=O)=C(O)C(=O)N2c2ccc(F)cc2)cc1` (centres undefined) returned a kinetic solubility of 48.5 µg/mL (≈ 142 µM). This solubility kinetic and that of the compound before are within 1.5-fold of each other. For `CCn1c(SCC(=O)O)nnc1-c1ccccc1OC`, the solubility (kinetic) was > 44 µg/mL. As for `COc1ccccc1NC(=O)c1cnc(SC)nc1`, the solubility (kinetic) was > 41.3 µg/mL. Then `COc1ccc(OCC(=O)Nc2cc(OC)ccc2N2CCCCC2)cc1`, with < 0.4 µg/mL.

For the compound `CCN(CC)C(=S)SCC(=O)Nc1ncc2c(n1)CC(C)(C)CC2=O`, the solubility (kinetic) amounted to 2.1 µg/mL (≈ 5.52 µM).

Regarding `Cc1ccccc1-n1ccnc1SCC(=O)NCc1ccco1`, the solubility (kinetic) is > 49.1 µg/mL. In turn, `Nc1ccccc1N1C(=O)c2cccc3cccc(c23)C1=O` had a kinetic solubility of 4.3 µg/mL (≈ 14.9 µM). The result for `CCC1CN(C(=O)NCc2ccc(F)cc2)c2ccccc2O1` (centres undefined) reads 37.4 µg/mL (≈ 119 µM). Then `CCCCN1C(=O)c2ccc(C(=O)N(C)CC(=O)Nc3ccc(OCC)c(OCC)c3)cc2C1=O`, with 17.5 µg/mL (≈ 36.3 µM). The result for `Cc1cc(C)nc(NC(=O)c2ccc(Br)s2)n1` reads > 46.8 µg/mL; that for `COCCn1c(C)cc(C(=O)COc2cccnc2[N+](=O)[O-])c1C`, 49.7 µg/mL (≈ 149 µM). `COc1c(F)c(F)cc2c(=O)c(C(=O)O)cn(C3CC3)c12`: the kinetic solubility was > 44.3 µg/mL. `CC1CN(C(=O)c2ccc(NS(=O)(=O)c3ccc(C(C)(C)C)cc3)cc2)CC(C)O1` (centres undefined) had a kinetic solubility of 48 µg/mL (≈ 111 µM). Then `CCc1ccc(CN(C)C(=O)c2ccc3c(c2)OCCO3)cc1`, with > 46.7 µg/mL. The result for `O=C(Nc1ccccc1)Nc1cnccn1` reads 16.2 µg/mL (≈ 75.6 µM). The result for `CC1CCCN(C(=O)c2cc(-c3ccco3)nc3ccccc23)C1` (centres undefined) reads > 48.1 µg/mL. For `N#Cc1cnc(NCc2ccc(Cl)cc2Cl)nc1`, the solubility (kinetic) is 0.5 µg/mL (≈ 1.79 µM). Then `CC(C)CNc1c2c(nc3ccccc13)CCC2.Cl`, with > 41.5 µg/mL; and `CCNC(=O)COC(=O)c1[nH]c(C)c(C(=O)OC)c1C`, with > 42.3 µg/mL. The result for `Cc1cc([N+](=O)[O-])ccc1NC(=O)C(C)NC1CCCCC1` (centres undefined) reads > 45.8 µg/mL.

The compound `Cc1ccc(N2C(=O)CC(Nc3cccc4ccccc34)C2=O)cc1` (centres undefined) came in with a kinetic solubility of 3.8 µg/mL (≈ 11.5 µM).

In the case of `CCOc1cc(C(=S)N2CCCC2)ccc1OCc1ccccc1`, the solubility (kinetic) amounted to 7.6 µg/mL (≈ 22.3 µM). On to `Cc1ccc2sc(NC(=O)C3CC3)nc2c1C`, for which the kinetic solubility stood at 1.3 µg/mL (≈ 5.28 µM). The result for `COCC(=O)N(Cc1cc2ccc(C)cc2[nH]c1=O)c1ccc(C)cc1C` reads 4.9 µg/mL (≈ 13.4 µM); that for `O=C(Oc1cccc(OC(=O)N2CCCCC2)c1)N1CCCCC1`, 20.8 µg/mL (≈ 62.6 µM); that for `CC(=O)NCCCc1nc2ccccc2n1Cc1ccccc1F`, 48.6 µg/mL (≈ 149 µM). The result for `CCN(CC)CCOc1ccc(/C(=C(/Cl)c2ccccc2)c2ccccc2)cc1` reads 1.5 µg/mL (≈ 3.69 µM); that for `CC(C)C(=O)Nc1ccccc1-c1nc2ccccc2[nH]c1=O`, > 46.1 µg/mL. The result for `CC1CCCC(C)N1C(=O)COC(=O)c1ccc2ccccc2n1` (centres undefined) reads 15.3 µg/mL (≈ 46.9 µM); that for `Cn1cnc(S(=O)(=O)Nc2ccc3c(c2)OCCO3)c1`, 30.2 µg/mL (≈ 102 µM). Turning to `CC(C)(C)SCCNC(=O)/C=C/c1ccccc1`, the kinetic solubility stood at 33.9 µg/mL (≈ 129 µM). This solubility kinetic and that of the compound before are within 1.5-fold of each other. Then `C#CC(C)OC(=O)Nc1cnccc1C(F)(F)F` (centres undefined), with 36 µg/mL (≈ 139 µM). As to `COc1cccc(C(=O)Nc2cccc3ccccc23)c1OC`, the solubility (kinetic) stood at 14.5 µg/mL (≈ 47.2 µM). Take `O=C(Nc1cccc(S(=O)(=O)N2CCCCC2)c1)c1ccc(Cl)nc1`: the kinetic solubility amounted to 4.4 µg/mL (≈ 11.6 µM). The result for `O=S(=O)(NCc1cn2ccccc2n1)c1cccs1` reads > 44 µg/mL; that for `c1ccc(-c2ccccc2OCCN2CCCC2)cc1`, 25 µg/mL (≈ 93.5 µM); that for `CCOc1ccccc1NC(=O)CN1C(=O)CSC(C)C1=O` (centres undefined), > 48.4 µg/mL. The result for `O=c1ccc2cc(S(=O)(=O)NCCCc3ccccc3)ccc2[nH]1` reads 1 µg/mL (≈ 2.92 µM). The result for `O=[N+]([O-])c1ccc(Cc2cncc(O)c2)cc1` reads 34.1 µg/mL (≈ 148 µM); that for `O=S(=O)(c1ccc2oc(=S)[nH]c2c1)N1CCCCC1`, > 44.8 µg/mL. With `O=C(CCn1c(=S)oc2ccccc21)NCCC1=CCCCC1`, the kinetic solubility came out at 0.8 µg/mL (≈ 2.42 µM). Then `Cn1c(N)c(C(=O)COC(=O)CNC(=O)c2ccccc2F)c(=O)n(C)c1=O`, with > 58.9 µg/mL.

`O=c1[nH]c(O)c(C=Nc2cc(F)cc(F)c2)c(=O)[nH]1` showed a kinetic solubility of 2.8 µg/mL (≈ 10.5 µM). In the case of `OCC(O)C1OC(Nc2ccc(Br)cc2)C(O)C1O` (centres undefined), the solubility (kinetic) is > 50.1 µg/mL. `O=C(Nc1ccc(F)cc1)Nc1ccc2c(c1)OCO2`: the solubility (kinetic) turned out to be 0.7 µg/mL (≈ 2.55 µM). Consider `CCNC(=O)CC1C(=O)N(c2ccccc2)C(=O)N1CCOC` (centres undefined), for which the kinetic solubility is > 47.9 µg/mL. The result for `CCC(NC(=O)c1ccccc1NC(=O)C(C)(C)C)C(=O)N1CC(C)OC(C)C1` (centres undefined) reads > 60.5 µg/mL; that for `O=C(NCc1ccccc1)C12CC3CC(CC(Br)(C3)C1)C2`, 6.6 µg/mL (≈ 19 µM). Then `Oc1[nH]c(=S)sc1C=C1N=c2ccccc2=N1`, with > 39.2 µg/mL; and `N#Cc1ccccc1OCC(=O)Nc1ccc2c(c1)OCCCO2`, with > 48.7 µg/mL.

These data come from PubChem BioAssay AID1996.
